# Patent publication US8541628B2, “Complex cationic lipids having quaternary nitrogens therein” (Vical Incorporated, priority 1995, dated 2013)
# Entries after “also recorded” stand apart in the source; their conditions may differ.
# Columns and labels:
# [1] = tested on: influenza nuclear protein (NP) antibody titers; format: in vivo, Balb/c mice; settings: cytofectin:DOPE 1:1, pDNA-phosphate/cytofectin 4:1, serum at 6 weeks, FIG. 6; for activity in NP antibody assay compared with naked DNA alone: 10 μgr pDNA per animal, day 0 and 3 weeks
# BF16F10 melanoma tumors = assay: Subcutaneous melanoma tumor model (intratumoral cytofectin/CAT plasmid complex, CAT activity); format: in vivo, BALB/C mice; settings: intratumoral injection; tumors collected after 48 hours; FIG. 7
# Experimental: Tumors are prepared by injecting a suspension of tumor cells subcutaneously on the side of a mouse strain which is compatible with the specific tumor type. The tumors are periodically measured. Once they have reached a size suitable for injection, the tumor volume is approximated based on the measured diameter assuming a spherical tumor. A complex of the cytofectin to be evaluated with a plasmid encoding a reporter gene in a volume of saline equal to the volume of the tumor to be treated is then injected at a flow rate optimized for the particular tumor type. After an appropriate time, the tumors are collected, frozen, then ground up. The reporter gene product is subsequently extracted and the quantity which was expressed is determined using extraction and assay conditions appropriate for the particular gene product being used. A variety of tumor types may be evaluated using this general technique, and different reporter genes are more or less appropriate depending on the tumor type. A specific example of this assay involving melanoma tumors is provided in Example 14 below.
# BF16F10 melanoma tumors are propagated in 90% RPMI 1640/10% Fetal Bovine Serum. The tumors are injected subcutaneously into the side of BALB/C mice in 75 μL of a suspension containing approximately 10^6 cells/mL tissue culture medium. When the tumors have reached 4.5 to 7 mm in diameter the volume of each individual tumor is calculated by measuring the diameter of the tumor and assuming a spherical tumor. For each individual tumor, a volume of the cytofectin/CAT plasmid complex in saline equivalent to the calculated volume of the tumor is injected into the tumor at a rate of 2 mL/min. After 48 hours, the tumors are collected, frozen, ground up, and extracted with 1.5 mL of extraction buffer as described in Example 3. CAT activity is quantitated as described below. […]
# [2] = tested on: C2C12 mouse myoblast muscle cells; assay: In vitro transfection of C2C12 cells (pRSV lacZ, β-galactosidase expression; DMRIE as reference standard); format: cell-based; settings: for Activity C2C12: cytofectin activity relative to DMRIE, comparison symbols, key not given
# Experimental: (§1) Solutions of a DMRIE or GMU-DMRIE in chloroform were prepared on a weight to volume (w/v) basis. Aliquots of cationic lipid and neutral lipid (when used) were transferred aseptically to sterile vials in amounts calculated to provide the relative and absolute lipid concentrations desired upon reconstitution with 1 ml of aqueous vehicle. Bulk chloroform was removed with a stream of dry nitrogen, and the vials were treated with high vacuum overnight to remove any residual solvent.
# (§2) Plasmid DNA at 5 mg/ml of phosphate buffered saline (PBS) as well as the dried, formulated cytofectin-neutral lipid mixture were suspended in OPTIMEM™ (Gibco BRL) and mixed together in 96 well plates at the desired mass/molar ratio as indicated in the Tables. The DNA-lipid complexes were added to the cells within 2 hours after mixing.
# (§3) All cells were passaged 1:5 to 1:10 in 10% fetal bovine serum (FBS) and Dulbecco's Modified Eagles medium (DMEM). All cells were expanded through 10 doubling passages upon receipt and aliquots were stored frozen. Upon re-expansion, all cells were used for transfection studies before another 10 passages.
# (§4) On day 0, 20,000 cells in 100 microliters 10% FEBS/90% DMEM were seeded into each well of 96-well culture plates (Nunc) and cultured overnight in a 5% CO2 incubator at 37° C. On Day 1, the medium was aspirated carefully without dislodging cells, and 100 microliters of GMU-DMRIE/pRSV lacZ/DOPE in serum-free OPTIMEM™ (Gibco BRL) was added. DMRIE was used as a reference standard. The lacZ gene encodes the enzyme β-galactosidase which can be assayed colorimetricaly. The cationic lipid:DOPE ratios varied for each well. After 4 hours of culture, 50 microliters 30% FBS/70% OPTIMEM™ was added to each well. On Day 2, each well received 100 microliters 10% FEBS/90% OPTIMEM™. On Day 3, the medium was removed and 50 microliters lysis buffer (0.1% Triton-X100 in 250 mM Tris, pH 8.0) was added and the plates were stored at […] for at least 20 hours.
# murine B16 tumor cells = assay: Intraperitoneal tumor assay (CAT DNA, CAT activity in tumors); format: in vivo, C57/B16 mice; settings: 0.5 mg CAT DNA i.p., 10:1 molar ratio of cytofectin:DNA, tumors two days later, FIG. 5; for CAT expression in tumor cells: control DNA alone
# Experimental: Two hundred thousand murine B16 tumor cells in 500 μl RPMI were injected intraperitoneally into C57/B16 mice at day 0. At day 7-14, mice received intraperitoneal injections of 0.5 mg CAT DNA in 1.5 ml saline containing cytofectin at a 10:1 molar ratio of cytofectin:DNA. The cationic lipids used were DMRIE, GAP-DMRIE, GAP-DLRIE, and GMU-DLRIE. Two days later, tumors were collected, extracted and assayed for CAT activity as described in Example 7. The CAT activities observed with the cytofectin formulations is compared to a control receiving DNA alone in FIG. 5. […] CAT activity was greatest in cells transfected with DMRIE.
# COS7 monkey kidney cells = assay: In vitro transfection of COS7 cells (pRSV lacZ, β-galactosidase expression; DMRIE as reference standard); format: cell-based; settings: for Activity Cos7: cytofectin activity relative to DMRIE, comparison symbols, key not given
# Experimental: as §1, §2, §3, §4
Compound,activity in NP antibody assay compared with naked DNA alone [1],Activity C2C12 [2],Activity Cos7 (COS7 monkey kidney cells),other results
CCCCCCCCCCCCCCOCC(C[N+](C)(CCCN)CCCN)OCCCCCCCCCCCCCC (centres unmarked) [BPA-DMRIE],greater activity than naked DNA alone,,,"activity in NP antibody assay, among the compounds tested [1]: particularly high activity; CAT activity in subcutaneous melanoma, among the compounds tested (BF16F10 melanoma tumors): particularly high activity"
"CCCCCCCCCCCCCCOCC(C[N+](C)(C)CCCNC(N)=S)OCCCCCCCCCCCCCC (centres unmarked) [GTU-DMRIE, DMRIE-γ-thiourea]",,,,"CAT activity in subcutaneous melanoma, among the compounds tested (BF16F10 melanoma tumors): particularly high activity"
"CCCCCCCCCCCCCCOCC(C[N+](C)(C)CCCCNC(=O)NC)OCCCCCCCCCCCCCC.[Br-] (centres unmarked) [DMU, δ-aminobutyl DMRIE, Methyl Urea]",,≧,,
CCCCCCCCCCCCOCC(C[N+](C)(C)CCCNC(=O)NC)OCCCCCCCCCCCC (centres unmarked) [GMU-DLRIE],,,,CAT expression in tumor cells (murine B16 tumor cells): significant CAT expression
"γ-aminopropyl-DMRIE,α-glucosyl thiourea [Glc-TU-DMRIE]",greater activity than naked DNA alone,≦,≧,
CCCCCCCCCCCCCCOCC(C[N+](C)(CCCN)CCCCN)OCCCCCCCCCCCCCC (centres unmarked) [PABA-DMRIE],greater activity than naked DNA alone,,,"activity in NP antibody assay, among the compounds tested [1]: particularly high activity"
CCCCCCCCCCCCCCOCC(C[N+](C)(C)CCCN)OCCCCCCCCCCCCCC (centres unmarked) [GAP-DMRIE],,,,"CAT activity, cytofectins compared with one another (murine B16 tumor cells): significant activity; CAT expression in tumor cells (murine B16 tumor cells): significant CAT expression"
"γ-aminopropyl-DMRIE,α-galactosyl thiourea [Gal-TU-DMRIE]",greater activity than naked DNA alone,≈,≧,
Hydroxypropyl DMRIE Methyl Carbamate [ΥMC],,≈,≈,
"γ-aminopropyl-DMRIE, α-arabonosyl thiourea [Ara-TU-DMRIE]",greater activity than naked DNA alone,<,≈,
DMRIE carboxylate (methionine-methyl ester) amide [DOx-Met-OMe],,<,,
"CCCCCCCCCCCCCCOCC(C[N+](C)(C)CCNC(=O)NC)OCCCCCCCCCCCCCC.[Br-] (stereo not drawn) [BMU, β-aminoethyl-DMRIE,Methyl Urea]",greater activity than naked DNA alone,≦,≧,"activity in NP antibody assay, among the compounds tested [1]: particularly high activity"
"γ-aminopropyl-DMRIE, Arginine Methyl Ester Urea [Arg(OMe)-GU-DMRIE]",,,,"CAT activity in subcutaneous melanoma, among the compounds tested (BF16F10 melanoma tumors): particularly high activity"
"CCCCCCCCCCCCCCOCC(C[N+](C)(C)CCCNC(=O)NC)OCCCCCCCCCCCCCC (centres unmarked) [GMU, γ-aminopropyl-DMRIE,Methyl Urea]",,≈,≧,"levels of β-gal activity compared with DMRIE (COS7 monkey kidney cells; COS7 cells): higher levels of activity than those achieved by DMRIE; Total β-gal expression (COS7 monkey kidney cells; COS7 cells, GMU-DMRIE alone (no DOPE)): significantly decreased; total expression of β-gal (COS7 monkey kidney cells; COS7 cells, GMU-DMRIE/DOPE ratio of 75:25): highly effective; levels of total β-gal activity compared with DMRIE ([2]; C2C12 cells): significantly higher levels of total activity than DMRIE; Total β-gal expression ([2]; C2C12 cells, GMU-DMRIE alone (no DOPE)): significantly decreased"
"CCCCCCCCCCCCCCOCC(C[N+](C)(C)CCO)OCCCCCCCCCCCCCC.[Br-] (racemic) [DMRIE, 1-propanaminium, N-(2-hydroxyethyl)-N,N-dimethyl-2,3-bis(tetradecyloxy)-bromide, (±)-, reference compound]",,,,"CAT activity, cytofectins compared with one another (murine B16 tumor cells): greatest; CAT expression in tumor cells (murine B16 tumor cells): significant CAT expression"
Serine-δ-DMRIE amide [δ-ser-DMRIE],,≦,≈,
DMRIE Methyl carbamate [βMC],,≈,≈,
CCCCCCCCCCCCOCC(C[N+](C)(C)CCCN)OCCCCCCCCCCCC (centres unmarked) [GAP-DLRIE],,,,"CAT activity, cytofectins compared with one another (murine B16 tumor cells): nearly as effective as DMRIE; also recorded: significant activity; CAT expression in tumor cells (murine B16 tumor cells): significant CAT expression"
CCCCCCCCCCCCOCC(C[N+](C)(CCCN)CCCN)OCCCCCCCCCCCC (centres unmarked) [BPA-DLRIE],greater activity than naked DNA alone,,,"activity in NP antibody assay, among the compounds tested [1]: particularly high activity"
Hydroxybutyl DMRIE Methyl Carbamate [δMC],,≈,≈,
pGlutamate-histidine-proline-γ-DMRIE amide [TRH-γ-DMRIE],,,≈,
